Assay results reported in ChEMBL document CHEMBL1201862, “PubChem BioAssay data set” (2004).
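How tested: cells in 96-well plates exposed to compound for 48 hours at five concentrations. Abbreviation: GI50, concentration required for 50% inhibition of growth.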 Activity calls are given as the source filed them. No stated cut-off is given here; in the data, active = GI50 up to about 1.1 µM and inactive = higher.

How the values were obtained:
Test in all cases: NCI tumour cell line growth inhibition, 48 h
786-0 = system: 786-0
A498 = system: A498
A549 = system: A549
ACHN = system: ACHN
CAKI-1 = system: CAKI-1
CCRF-CEM = system: CCRF-CEM
COLO 205 = system: COLO 205
DLD-1 = system: DLD-1
DMS-114 = system: DMS-114
DMS-273 = system: DMS-273
HCC 2998 = system: HCC 2998
HCT-116 = system: HCT-116
HCT-15 = system: HCT-15
HL-60 = system: HL-60
HOP-18 = system: HOP-18
HOP-62 = system: HOP-62
HOP-92 = system: HOP-92
HT-29 = system: HT-29
IGROV-1 = system: IGROV-1
K562 = system: K562
KM-20L2 = system: KM-20L2
KM12 = system: KM12
LOX IMVI = system: LOX IMVI
LXFL 529 = system: LXFL 529
M14 = system: M14
M19-MEL = system: M19-MEL
MOLT-4 = system: MOLT-4
Malme-3M = system: Malme-3M
NCI-H226 = system: NCI-H226
NCI-H460 = system: NCI-H460
NCI-H522 = system: NCI-H522
OVCAR-4 = system: OVCAR-4
OVCAR-5 = system: OVCAR-5
OVCAR-8 = system: OVCAR-8
RPMI-8226 = system: RPMI-8226
RXF 393 = system: RXF 393
RXF 631 = system: RXF 631
SF-268 = system: SF-268
SF-295 = system: SF-295
SF-539 = system: SF-539
SK-MEL-2 = system: SK-MEL-2
SK-MEL-5 = system: SK-MEL-5
SK-OV-3 = system: SK-OV-3
SN12C = system: SN12C
SNB-19 = system: SNB-19
SNB-75 = system: SNB-75
SNB-78 = system: SNB-78
SR = system: SR
SW-620 = system: SW-620
TK-10 = system: TK-10
U-251 = system: U-251
UACC-257 = system: UACC-257
UACC-62 = system: UACC-62
UO-31 = system: UO-31
EKVX = system: EKVX
NCI-H23 = system: NCI-H23
OVCAR-3 = system: OVCAR-3
SK-MEL-28 = system: SK-MEL-28

CC1OC(n2cc(F)c(=O)[nH]c2=O)CCC1=O (centres undefined)
GI50 (786-0): > 100 µM (inactive)
GI50 (A498): 30.4 µM (inactive)
GI50 (A549): 46.7 µM (inactive)
GI50 (ACHN): > 100 µM (inactive)
GI50 (CAKI-1): > 100 µM (inactive)
GI50 (CCRF-CEM): > 100 µM (inactive)
GI50 (COLO 205): 79.4 µM (inactive)
GI50 (DLD-1): 52.5 µM (inactive)
GI50 (DMS-114): > 100 µM (inactive)
GI50 (DMS-273): 62.5 µM (inactive)
GI50 (HCC 2998): 5.98 µM (inactive)
GI50 (HCT-116): 44.9 µM (inactive)
GI50 (HCT-15): 95.3 µM
GI50 (HL-60): 74.6 µM (inactive)
GI50 (HOP-18): 65.2 µM (inactive)
GI50 (HOP-62): 50.8 µM (inactive)
GI50 (HOP-92): > 100 µM (inactive)
GI50 (HT-29): 91 µM (inactive)
GI50 (IGROV-1): > 100 µM (inactive)
GI50 (K562): > 100 µM (inactive)
GI50 (KM-20L2): 96.6 µM (inactive)
GI50 (KM12): 92.9 µM (inactive)
GI50 (LOX IMVI): 88.1 µM (inactive)
GI50 (LXFL 529): > 100 µM (inactive)
GI50 (M14): > 100 µM (inactive)
GI50 (M19-MEL): > 100 µM (inactive)
GI50 (MOLT-4): > 100 µM (inactive)
GI50 (Malme-3M): > 100 µM (inactive)
GI50 (NCI-H226): > 100 µM (inactive)
GI50 (NCI-H460): 32.2 µM (inactive)
GI50 (NCI-H522): > 100 µM (inactive)
GI50 (OVCAR-4): > 100 µM (inactive)
GI50 (OVCAR-5): > 100 µM (inactive)
GI50 (OVCAR-8): > 100 µM (inactive)
GI50 (RPMI-8226): 49.7 µM (inactive)
GI50 (RXF 393): > 100 µM (inactive)
GI50 (RXF 631): 39.9 µM (inactive)
GI50 (SF-268): > 100 µM (inactive)
GI50 (SF-295): > 100 µM (inactive)
GI50 (SF-539): 10.4 µM (inactive)
GI50 (SK-MEL-2): > 100 µM (inactive)
GI50 (SK-MEL-5): > 100 µM (inactive)
GI50 (SK-OV-3): > 100 µM (inactive)
GI50 (SN12C): > 100 µM (inactive)
GI50 (SNB-19): > 100 µM (inactive)
GI50 (SNB-75): > 100 µM (inactive)
GI50 (SNB-78): > 100 µM (inactive)
GI50 (SR): > 100 µM (inactive)
GI50 (SW-620): > 100 µM (inactive)
GI50 (TK-10): > 100 µM (inactive)
GI50 (U-251): > 100 µM (inactive)
GI50 (UACC-257): > 100 µM (inactive)
GI50 (UACC-62): > 100 µM (inactive)
GI50 (UO-31): 71.8 µM (inactive)

O=c1[nH]ccc2c1ccn2C1CC(O)C(CO)O1 (centres undefined)
GI50 (786-0): > 100 µM (inactive)
GI50 (A498): > 100 µM (inactive)
GI50 (A549): > 100 µM (inactive)
GI50 (ACHN): > 100 µM (inactive)
GI50 (CAKI-1): > 100 µM (inactive)
GI50 (CCRF-CEM): > 100 µM (inactive)
GI50 (COLO 205): > 100 µM (inactive)
GI50 (DLD-1): > 100 µM (inactive)
GI50 (DMS-114): > 100 µM (inactive)
GI50 (DMS-273): > 100 µM (inactive)
GI50 (EKVX): > 100 µM (inactive)
GI50 (HCC 2998): > 100 µM (inactive)
GI50 (HCT-116): > 100 µM (inactive)
GI50 (HCT-15): > 100 µM
GI50 (HL-60): > 100 µM (inactive)
GI50 (HOP-18): > 100 µM (inactive)
GI50 (HOP-62): > 100 µM (inactive)
GI50 (HOP-92): > 100 µM (inactive)
GI50 (HT-29): > 100 µM (inactive)
GI50 (IGROV-1): > 100 µM (inactive)
GI50 (K562): > 100 µM (inactive)
GI50 (KM12): > 100 µM (inactive)
GI50 (LOX IMVI): > 100 µM (inactive)
GI50 (LXFL 529): > 100 µM (inactive)
GI50 (M14): > 100 µM (inactive)
GI50 (M19-MEL): > 100 µM (inactive)
GI50 (MOLT-4): > 100 µM (inactive)
GI50 (Malme-3M): > 100 µM (inactive)
GI50 (NCI-H226): > 100 µM (inactive)
GI50 (NCI-H23): > 100 µM (inactive)
GI50 (NCI-H460): > 100 µM (inactive)
GI50 (NCI-H522): > 100 µM (inactive)
GI50 (OVCAR-3): > 100 µM (inactive)
GI50 (OVCAR-4): > 100 µM (inactive)
GI50 (OVCAR-5): > 100 µM (inactive)
GI50 (OVCAR-8): > 100 µM (inactive)
GI50 (RPMI-8226): > 100 µM (inactive)
GI50 (RXF 631): > 100 µM (inactive)
GI50 (SF-295): > 100 µM (inactive)
GI50 (SF-539): > 100 µM (inactive)
GI50 (SK-MEL-28): > 100 µM (inactive)
GI50 (SK-MEL-2): > 100 µM (inactive)
GI50 (SK-MEL-5): > 100 µM (inactive)
GI50 (SK-OV-3): > 100 µM (inactive)
GI50 (SN12C): > 100 µM (inactive)
GI50 (SNB-19): > 100 µM (inactive)
GI50 (SNB-75): 46.5 µM (inactive)
GI50 (SNB-78): > 100 µM (inactive)
GI50 (SR): > 100 µM (inactive)
GI50 (SW-620): > 100 µM (inactive)
GI50 (TK-10): > 100 µM (inactive)
GI50 (U-251): > 100 µM (inactive)
GI50 (UACC-257): > 100 µM (inactive)
GI50 (UACC-62): > 100 µM (inactive)
GI50 (UO-31): > 100 µM (inactive)
